# “And” between values parts separate entries of the source, which are not always exact repeats. Identical values can stand only once. Marks after values point to notes of the source that are not given here. Non-standard residues stand in square brackets, D forms with d. Residues, ends and D or L forms follow the SMILES beside them. *: point of attachment. Asu = N[C@@H](CCCCCC(=O)O)C(=O)O; NHOH = ON*
# Columns and labels:
# Type in all cases: biochemical
# HDAC6 = target: T1, HDAC6 (Homo sapiens, UniProt Q9UBN7); assay: HDAC inhibition assay (fluorogenic, Ac-Leu-Gly-Lys(Ac)-AMC); settings: HDAC6, replicates
# T1 construct: HDAC6 (full length, BPS Bioscience, cat. #: 50056); purchased BPS Bioscience 50056
# T1 sequence (Q9UBN7 1-1215): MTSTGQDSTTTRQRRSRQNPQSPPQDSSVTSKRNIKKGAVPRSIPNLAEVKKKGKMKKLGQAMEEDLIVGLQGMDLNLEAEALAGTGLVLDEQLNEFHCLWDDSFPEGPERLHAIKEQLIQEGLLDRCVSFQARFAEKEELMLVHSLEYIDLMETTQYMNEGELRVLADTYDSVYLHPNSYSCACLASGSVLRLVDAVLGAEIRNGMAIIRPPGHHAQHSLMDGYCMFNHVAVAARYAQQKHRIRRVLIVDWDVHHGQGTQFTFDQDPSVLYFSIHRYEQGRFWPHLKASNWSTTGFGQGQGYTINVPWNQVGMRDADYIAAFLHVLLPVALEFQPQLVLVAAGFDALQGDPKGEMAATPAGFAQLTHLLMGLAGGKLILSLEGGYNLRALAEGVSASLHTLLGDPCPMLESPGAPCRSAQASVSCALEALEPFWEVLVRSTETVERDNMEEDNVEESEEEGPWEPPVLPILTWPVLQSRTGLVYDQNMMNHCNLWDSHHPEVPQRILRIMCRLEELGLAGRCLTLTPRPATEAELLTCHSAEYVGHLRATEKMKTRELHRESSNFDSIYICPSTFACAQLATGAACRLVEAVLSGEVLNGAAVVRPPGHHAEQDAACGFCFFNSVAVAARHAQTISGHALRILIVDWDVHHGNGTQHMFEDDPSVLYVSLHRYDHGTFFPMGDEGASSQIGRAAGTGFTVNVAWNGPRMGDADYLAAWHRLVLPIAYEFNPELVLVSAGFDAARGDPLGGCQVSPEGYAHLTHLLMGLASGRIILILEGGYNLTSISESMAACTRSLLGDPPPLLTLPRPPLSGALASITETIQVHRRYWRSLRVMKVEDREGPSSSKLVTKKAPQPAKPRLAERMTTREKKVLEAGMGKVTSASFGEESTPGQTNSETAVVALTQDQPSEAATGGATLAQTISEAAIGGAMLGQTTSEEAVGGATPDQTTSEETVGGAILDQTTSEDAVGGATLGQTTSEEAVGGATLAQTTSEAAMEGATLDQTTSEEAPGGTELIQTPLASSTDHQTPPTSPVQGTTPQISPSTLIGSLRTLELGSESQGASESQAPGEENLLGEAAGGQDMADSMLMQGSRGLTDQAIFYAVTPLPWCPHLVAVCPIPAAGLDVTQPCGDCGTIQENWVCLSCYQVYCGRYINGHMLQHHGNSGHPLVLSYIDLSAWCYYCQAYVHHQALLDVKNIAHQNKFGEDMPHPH
# HDAC8 = target: T2, HDAC8 (Homo sapiens, UniProt Q9BY41); assay: HDAC inhibition assay (fluorogenic, Ac-Leu-Gly-Lys(Tfa)-AMC); settings: for HDAC8 dose-response data (relative enzyme activity, replicate values), Fig. 6 + S. Fig. 10: two replicate columns per inhibitor; for HDAC8 dose-response data (relative enzyme activity), Fig. 6 + S. Fig. 10: duplicate columns
# T2 construct: HDAC8 (full length, C-terminal His tag, BPS Bioscience, cat. #: 50008); purchased BPS Bioscience 50008
# T2 sequence (Q9BY41 1-377): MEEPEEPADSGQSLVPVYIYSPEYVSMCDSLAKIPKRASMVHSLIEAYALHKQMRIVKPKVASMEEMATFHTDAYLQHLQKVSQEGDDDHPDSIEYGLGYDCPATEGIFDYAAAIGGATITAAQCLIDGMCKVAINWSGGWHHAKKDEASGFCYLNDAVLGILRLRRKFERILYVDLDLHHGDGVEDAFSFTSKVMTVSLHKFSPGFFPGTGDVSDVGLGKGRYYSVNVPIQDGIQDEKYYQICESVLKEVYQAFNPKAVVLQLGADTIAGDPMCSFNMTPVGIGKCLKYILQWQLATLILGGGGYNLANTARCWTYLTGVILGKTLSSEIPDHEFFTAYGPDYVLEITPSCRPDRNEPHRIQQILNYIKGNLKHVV
# HDAC1 = target: T3, HDAC1 (Homo sapiens, UniProt Q13547); assay: HDAC inhibition assay (fluorogenic, Ac-Leu-Gly-Lys(Ac)-AMC); settings: for HDAC1 dose-response data (relative enzyme activity), Fig. 6 + S. Fig. 10: duplicate columns
# T3 construct: HDAC1 (full length, C-terminal His tag, C-terminal FLAG tag, BPS Bioscience, cat. #: 50051); FLAG (C); purchased BPS Bioscience 50051
# T3 sequence (Q13547 whole entry): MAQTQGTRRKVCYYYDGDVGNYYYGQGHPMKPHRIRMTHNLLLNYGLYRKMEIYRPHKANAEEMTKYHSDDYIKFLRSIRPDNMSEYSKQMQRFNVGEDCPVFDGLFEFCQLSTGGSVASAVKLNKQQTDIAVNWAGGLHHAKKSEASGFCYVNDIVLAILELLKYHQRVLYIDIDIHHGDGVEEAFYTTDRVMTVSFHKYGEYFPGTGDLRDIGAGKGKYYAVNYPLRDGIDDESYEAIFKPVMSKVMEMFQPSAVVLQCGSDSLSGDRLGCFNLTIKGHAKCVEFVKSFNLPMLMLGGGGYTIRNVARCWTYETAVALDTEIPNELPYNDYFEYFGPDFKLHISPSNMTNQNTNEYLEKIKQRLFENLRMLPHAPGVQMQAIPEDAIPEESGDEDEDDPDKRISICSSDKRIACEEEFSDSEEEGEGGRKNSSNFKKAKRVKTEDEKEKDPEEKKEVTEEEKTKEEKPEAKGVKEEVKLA
smiles,measurement,setting,value
CC[C@H](C)[C@H](NC(=O)[C@@H](NC(=O)[C@H](CO)NC(=O)[C@H](CCCNC(=N)N)NC(=O)[C@H](CCCCCC(=O)NO)NC(=O)[C@H](CC(N)=O)NC(=O)[C@H](Cc1ccc(O)cc1)NC(=O)[C@H](Cc1c[nH]cn1)NC(=O)[C@H](C)NC(=O)[C@H](CC(C)C)NC(=O)[C@H](CCCNC(=N)N)NC(=O)[C@H](CO)NC(=O)[C@H](C)NC(=O)[C@H](CCC(=O)O)NC(C)=O)[C@@H](C)O)C(=O)N[C@H](C(=O)N[C@@H](CO)C(=O)N[C@@H](Cc1c[nH]c2ccccc12)C(N)=O)[C@@H](C)O [11a] (Ac-EASRLAHYN[Asu](NHOH)RSTITSW-NH2),residual enzymatic activity relative to control wells,HDAC6; log[inhibitor(M)] -7.09691,30.8137 and 34.4652
same,residual enzymatic activity relative to control wells,HDAC6; log[inhibitor(M)] -7.79588,67.8407 and 69.7758
same,residual enzymatic activity relative to control wells,HDAC6; log[inhibitor(M)] -8.49485,85.433 and 85.1351
same,residual enzymatic activity relative to control wells,HDAC6; log[inhibitor(M)] -9.19382,83.1934 and 87.9013
same,residual enzymatic activity relative to control wells,HDAC6; log[inhibitor(M)] -9.89279,78.0457 and 86.7533
same,residual enzymatic activity relative to control wells,HDAC6; log[inhibitor(M)] -10.585,79.87 and 88.4822
same,Ki,HDAC8,216 ± 1 nM
same,"HDAC8 dose-response data (relative enzyme activity, replicate values), Fig. 6 + S. Fig. 10",HDAC8; Inhibitor conc [M] -8.49485 (log),96.1111 and 96.5276
same,"HDAC8 dose-response data (relative enzyme activity, replicate values), Fig. 6 + S. Fig. 10",HDAC8; Inhibitor conc [M] -9.19382 (log),96.7641 and 98.5453
same,"HDAC8 dose-response data (relative enzyme activity, replicate values), Fig. 6 + S. Fig. 10",HDAC8; Inhibitor conc [M] given as -7.09691 (log),74.7826 and 76.7416
same,"HDAC8 dose-response data (relative enzyme activity, replicate values), Fig. 6 + S. Fig. 10",HDAC8; Inhibitor conc [M] given as -7.79588 (log),92.4501 and 93.9678
same,"HDAC8 dose-response data (relative enzyme activity, replicate values), Fig. 6 + S. Fig. 10",HDAC8; Inhibitor conc [M] given as -9.89279 (log),96.0276 and 96.961
same,"HDAC8 dose-response data (relative enzyme activity, replicate values), Fig. 6 + S. Fig. 10",HDAC8; Inhibitor conc [M] given as -10.585 (log),"97,4443859* and 98,1506198*"
same,"HDAC8 dose-response data (relative enzyme activity), Fig. 6 + S. Fig. 10",HDAC8; Inhibitor conc [M] -4.30103,1.735 and 1.62
same,"HDAC8 dose-response data (relative enzyme activity), Fig. 6 + S. Fig. 10",HDAC8; Inhibitor conc [M] -5,6.862 and 6.863
same,"HDAC8 dose-response data (relative enzyme activity), Fig. 6 + S. Fig. 10",HDAC8; Inhibitor conc [M] -5.69897,19.3274 and 19.565
same,"HDAC8 dose-response data (relative enzyme activity), Fig. 6 + S. Fig. 10",HDAC8; Inhibitor conc [M] -6.39794,44.2904 and 45.2063
same,Ki,HDAC1,13.1 ± 0.1 nM
same,"HDAC1 dose-response data (relative enzyme activity), Fig. 6 + S. Fig. 10",HDAC1; log[inhibitor(M)] -5.69897,4.17 and 5.0607
same,"HDAC1 dose-response data (relative enzyme activity), Fig. 6 + S. Fig. 10",HDAC1; log[inhibitor(M)] -6.39794,14.283 and 18.2541
same,"HDAC1 dose-response data (relative enzyme activity), Fig. 6 + S. Fig. 10",HDAC1; log[inhibitor(M)] -7.09691,37.8888 and 46.2715
same,"HDAC1 dose-response data (relative enzyme activity), Fig. 6 + S. Fig. 10",HDAC1; log[inhibitor(M)] -7.79588,70.7486 and 79.6987
same,"HDAC1 dose-response data (relative enzyme activity), Fig. 6 + S. Fig. 10",HDAC1; log[inhibitor(M)] -8.49485,87.0411 and 94.7749
same,"HDAC1 dose-response data (relative enzyme activity), Fig. 6 + S. Fig. 10",HDAC1; log[inhibitor(M)] -9.19382,97.6689 and 100.068
same,"HDAC1 dose-response data (relative enzyme activity), Fig. 6 + S. Fig. 10",HDAC1; log[inhibitor(M)] -9.89279,97.248 and 100.059
same,"HDAC1 dose-response data (relative enzyme activity), Fig. 6 + S. Fig. 10","HDAC1; log[inhibitor(M)] -10,5850266520292*, whole line marked with asterisks","97,6864843* and 100,018018*"

# Reference: article PMC7782793, “Hydroxamic acid-modified peptide microarrays for profiling isozyme-selective interactions and inhibition of histone deacetylases” (Nature Communications, 2021)
